Laboratory results reported in PMC7352571, “New Anti-Cancer Strategy to Suppress Colorectal Cancer Growth Through Inhibition of ATG4B and Lysosome Function” (Cancers, 2020).

Legend:
HL60 cells = assay: CCK-8 cell viability assay, HL60; format: cell-based; details: Homo sapiens, HL-60; CCK-8 assay
Protocol: (§1) Cells were seeded and incubated overnight in 96-well plates at a density of 5 × 10^3 cells/well. […] A total of 10 µL CCK-8 were added to each well for additional 1 h and cell viability was measured by CCK-8 assay. Absorbance was measured at 450 nm. The IC50 values were calculated by GraphPad Prism 7 (GraphPad Software Inc., San Diego, CA, USA).

ATG4B = molecular target: T1, ATG4B (Homo sapiens, UniProt Q9Y4P1); assay: FRET-based assay for ATG4B activity
T1 sequence (Q9Y4P1 1-393): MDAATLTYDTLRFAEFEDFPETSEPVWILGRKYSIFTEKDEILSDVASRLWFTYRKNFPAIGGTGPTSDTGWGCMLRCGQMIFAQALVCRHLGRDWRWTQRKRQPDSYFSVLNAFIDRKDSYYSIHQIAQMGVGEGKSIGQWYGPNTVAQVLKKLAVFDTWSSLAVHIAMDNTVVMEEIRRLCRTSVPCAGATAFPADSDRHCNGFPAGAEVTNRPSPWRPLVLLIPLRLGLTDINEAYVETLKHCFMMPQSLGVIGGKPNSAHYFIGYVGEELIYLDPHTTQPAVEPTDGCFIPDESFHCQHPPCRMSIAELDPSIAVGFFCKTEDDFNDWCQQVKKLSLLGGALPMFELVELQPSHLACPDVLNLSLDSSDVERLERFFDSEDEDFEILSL
Protocol: A FRET-based assay for detecting ATG4B activity was carried out as described [45].

HeLa cells = assay: CCK-8 cell viability assay, HeLa; format: cell-based; details: Homo sapiens, HeLa; CCK-8 assay, 48 h
Protocol: as §1

HCT116 cells = assay: CCK-8 cell viability assay, HCT116; format: cell-based, Human; details: Homo sapiens, HCT-116; CCK-8 assay, 48 h
Protocol: as §1

[1] = system: proteolytic activity of lysosomes in HeLa cells; assay: DQ-BSA Red assay; format: cell-based; details: 6 h, 163N 5 or 10 µM, Baf 0.5 µM, E64D 25 µM plus pepstatin A 50 µM
Protocol: Figure 5 163N causes lysosome dysfunction. […] . (C) HeLa cells were treated with or without 163N (10 µM) for 6 h, followed by immunostaining using cathepsin B and LAMP1 antibody. The colocalization of cathepsin B and LAMP1 was measured.
DQ-BSA Red assay: cells were incubated with 10 µg/mL DQ-BSA Red in EBSS medium at 37° for 1.5 h, and then new medium with or without the indicated compounds were added for another 4 or 6 h, and then fluorescence microscopy was used for detecting the intensity of red fluorescent.
Supplementary Materials: New Anti-Cancer Strategy
to Suppress Colorectal Cancer Growth Through
Inhibition of ATG4B and Lysosome Function
Figure S1. Compounds with a 6-methylpyrimidine-2,4-diamine structure could cause lysosome
inhibition. (A) The structure of the representative lysosome inhibitors. (B) GFP-LC3B HeLa cells were
treated with Baf (0.5 µM) or 5 µM of different lysosome inhibitors for 2 h, then LysoTracker Red (LTR,
25 ng/mL) was used and the relative LTR fluorescent intensity was measured. (C) HeLa cells were
firstly treated with 10 µg/mL DQ-BSA for 1.5 h, and then treated with Rap (1 µM), Baf (0.5 µM), E64D
(25 µM) plus pepstatin A (50 µM), or 5 µM of different lysosome inhibitors for 4 h.
Cancers 2020, 12, x; www.mdpi.com/journal/ cancers […]

[2] = system: lysosome acidity in HeLa cells; assay: LysoTracker Red (LTR) assay, HeLa; format: cell-based; details: 6 h, 163N 5 or 10 µM, Rap 1 µM, E64D 25 µM plus pepstatin A 50 µM
Protocol: Figure 5 163N causes lysosome dysfunction. […] (C) HeLa cells were treated with or without 163N (10 µM) for 6 h, followed by immunostaining using cathepsin B and LAMP1 antibody. The colocalization of cathepsin B and LAMP1 was measured.
LTR assay: cells were incubated with LTR (25 nM) in HBSS medium at 37° for 30 min, and then fluorescence microscopy was used for detecting fluorescence intensity.

SMILES	IC50 (HL60 cells)	IC50 (ATG4B)	IC50 (HeLa cells)	IC50 (HCT116 cells)	dequenching of DQ-BSA (proteolytic activity of lysosome) [1]	LTR red fluorescence / acidic vesicles [2]
CCN1C(=O)/C(=C\c2cn(CC(=O)O)c3ccccc23)C(=O)N(c2ccc(Cl)cc2)C1=S [XGS00119]	> 100 µM	7.37 µM	> 100 µM	> 100 µM		
Nc1cc(O)nc(/C=C/c2ccc(Cl)cc2)c1 [XGS00046]	> 100 µM	39.1 µM	> 100 µM	> 100 µM		
COc1cccc(-c2cc3nc(-c4cccnc4)c(C#N)c(N)n3n2)c1 [XOS00154]	> 100 µM	40.7 µM	> 100 µM	> 100 µM		
O=C(Nc1ccc(-c2cc3ccccc3o2)cc1)c1ccco1 [XOS00201]	> 100 µM	8.98 µM	25.6 µM	19.6 µM		
COc1cccc(/C=C/c2cc(N)cc(O)n2)c1 [XGS00043]	> 100 µM	36.3 µM	> 100 µM	> 100 µM		
Nc1cc(O)nc(/C=C/c2ccco2)c1 [XGS00048]	> 100 µM	13.8 µM	> 100 µM	> 100 µM		
Cc1ccc(/C=C/c2cc(O)cc(=O)[nH]2)o1 [XGS00031]	> 100 µM	13 µM	> 100 µM	> 100 µM		
COc1ccccc1/C=C/c1cc(O)cc(=O)[nH]1 [XGS00025]	> 100 µM	29.2 µM	> 100 µM	> 100 µM		
COc1c2c(cc3oc(=O)c4c5cc(O)c(O)cc5oc4c13)OCC2 [XOS00207]	60.7 µM	2.31 µM	87.1 µM	17.6 µM		
COc1cccc(-c2cc3c([N+](=O)[O-])cc([N+](=O)[O-])cc3[nH]2)c1OC [XOS00176]	> 100 µM	23.8 µM	> 100 µM	> 100 µM		
CCOC(=O)c1c(-c2ccccc2)oc2ccc(O)cc12 [XOS00163]	31.7 µM	6.2 µM	32 µM	23 µM		
CCOC(=O)c1cnc2c(/N=N/c3ccc(OCC)cc3)c(N)nn2c1N [XOS00149]	> 100 µM	44 µM	> 100 µM	> 100 µM		
CO/C1=C\C(C)=C\[C@@H](C)[C@@H](O)[C@@H](C)C/C(C)=C/C=C/[C@H](OC)[C@@H]([C@@H](C)[C@@H](O)[C@H](C)[C@@]2(O)C[C@@H](O)[C@H](C)[C@@H](C(C)C)O2)OC1=O [Baf, Bafilomycin A1, reference compound]					nearly no dequenching of DQ-BSA	
N/C(=N\[N+](=O)[O-])N/N=C/c1ccc(-c2ccc(-n3cnnn3)cc2)o1 [XOS00117]	> 100 µM	6.65 µM	> 100 µM	> 100 µM		
CO[C@H]1C[C@@H]2CC[C@@H](C)[C@@](O)(O2)C(=O)C(=O)N2CCCC[C@H]2C(=O)O[C@H]([C@H](C)C[C@@H]2CC[C@@H](O)[C@H](OC)C2)CC(=O)[C@H](C)/C=C(\C)[C@@H](O)[C@@H](OC)C(=O)[C@H](C)C[C@H](C)/C=C/C=C/C=C/1C [Rap, rapamycin, reference compound]						stable
CC(=O)Nc1ccc(/N=C/c2c(C)c(C#N)c3[nH]c4cc(C)ccc4n3c2=O)cc1 [XOS00125]	> 100 µM	40.6 µM	> 100 µM	> 100 µM		
